Reference: patent publication US20240335429A1, “MOLECULAR GLUE AND SALL4 DEGRADER” (National University of Singapore, priority 2021, published 2024)
Read-outs that look alike come from different tables or passages of the source.

Assays:
H661 cells = test: CellTiter-Glo viability assay, H661; type: cell-based; conditions: Homo sapiens
Method: (§1) Cells were plated in RPMI culture media (40 μL) in 384-well white, flat-bottom plates (Corning) and incubated at 37° C. in a humidified atmosphere of 5% CO2 overnight. The numbers of cells per well were 1,500 for SNU-398 and SNU-182, 750 for SNU-387, SNU-449, SNU-475 and SNU-423, and 1,000 for H661 and H1299. After overnight incubation, 10 μL of drug (1% DMSO in RPMI) at designed concentrations were added to the cells. The cells were then incubated for 16, 24, 48, 72, or 96 h at 37° C. in a humidified atmosphere of 5% CO2 before CellTiter-Glo reagent (10 μL) was dispensed to the wells. The cells were incubated at room temperature for a minimum of 10 min. After that, luminescence readings were recorded by a Microplate Reader (PHERAstar or Tecan Infinite M200 Pro) according to the manufacturer's instruction for measuring the luminescence.

cleaved PARP = test: Immunoblot of cleaved PARP (apoptotic marker) in SNU-398 cells; type: cell-based, human; conditions: SNU-398 HCC cells, 24 h
Method: RIPA buffer containing freshly added protease inhibitors (2 mM PMSF) and protease inhibitor cocktail was used for cell lysis. The lysed cells were incubated for 10 min on ice and subsequently centrifuged at 4° C. for 10 min at 14,000 rpm. The protein concentrations of cell lysates were assessed using Bradford Assay as per manufacturer's instructions. The samples were denatured using 4× Sample buffer at 95° C. for 5 min. The samples were size resolved using polyacrylamide gel (8%) and Mini-PROTEAN Tetra Cell module. The size-resolved proteins were transferred onto PVDF via electroblotting using Mini Trans-Blot® module. The membrane was blocked using 5% BSA in TBST. The membrane was incubated with appropriate primary antibody (overnight) and secondary antibody (1 h). Immobilon Crescendo Western HRP substrate was used for signal development and images were acquired using darkroom development techniques.

SNU-398 cells = test: CellTiter-Glo viability assay, SNU-398; type: cell-based, human; conditions: for IC50: read-out: IC50 of cell proliferation / viability
Method: as §1

SALL4 (1-300aa) protein = biological target: T1, SALL4 (1-300aa) protein (Homo sapiens, UniProt Q9UJQ4); test: Thermal shift assay (TSA) with Sypro Orange; type: binding
T1 construct: SALL4 (1-300aa) cloned into this vector was expressed with the N-terminal 6-His tags; His6 (pET His6 TEV LIC vector 2B-T, TEV site) (N); made in house; host or cells: E. coli BL21 (DE3)/pLysS
T1 sequence (Q9UJQ4 1-300): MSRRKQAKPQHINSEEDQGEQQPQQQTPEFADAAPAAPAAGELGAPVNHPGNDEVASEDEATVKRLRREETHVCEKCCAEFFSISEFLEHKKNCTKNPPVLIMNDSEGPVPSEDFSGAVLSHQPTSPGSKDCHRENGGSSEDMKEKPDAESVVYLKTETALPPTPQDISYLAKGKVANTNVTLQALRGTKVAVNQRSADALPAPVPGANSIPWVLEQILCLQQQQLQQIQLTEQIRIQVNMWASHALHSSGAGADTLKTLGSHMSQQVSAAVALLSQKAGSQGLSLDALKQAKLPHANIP
Method: A library of 50,000 small molecules from the Novartis Biomedical Research Institute (NIBR) was screened at 50 μM and 100 μM against 13.8 μM of purified SALL4 (1-300aa) protein in the buffer containing potassium phosphate (100 mM) and NaCl (100 mM) at pH 7. Screening assay was performed in 384-well thin wall white PCR plates using LightCyler® 480 Real-Time PCR System (Roche Applied Sciences). A 7-min run was started at 30° C. and ended at 90° C. Sypro Orange was used as the sensitive fluorescent dye for monitoring thermal protein denaturation. Hits were defined as compounds that can induce a change in protein melting points 3 times higher than the standard deviations of the apo-protein melting point from DMSO control.
To experimentally assess the stoichiometry of the binding between SALL4 (1-300aa) and QE-18-WG07, the inventors titrated 13.8 μM of purified recombinant SALL4 (1-300aa) protein with 12 increasing concentrations of QE-18-WG07 and evaluated the dose-response correlation in the ΔTm shift by following the protocol for TSA in Example 7.

SNU-398 xenografts = test: HCC mouse xenograft, anti-tumor efficacy; type: in vivo; conditions: for tumor shrinkage: 15 days
Method: (§2) Animals were maintained, and all animal work were performed following the protocols approved by the Institutional Animal Care and Use Committee. The SNU-398 cell line was cultured as described above in ‘Cell Culture’. To establish the SNU-398 xenografts, NOD.Cg−Prkdc^sc^i^dIl2rg^tm^1^Wjl/Sz (NSG) female mice (6-8 weeks) were anesthetized using 2% isoflurane USP, and 0.5×10^6 SNU-398 cells in 200 μL of 1:1 RPMI:Matrigel were subcutaneously injected to the mouse flanks. When tumors were palpable, mice were randomized to receive either QE treatment or vehicle containing 5% DMSO, 12.5% Ethanol, and 12.5% Cremophor EL in 70% 1× PBS. Freshly prepared vehicle or QE-18-WG07 was administered by intraperitoneal (IP) injection, once daily (qd) at 10 mg/kg in the pilot study and 5, 15, and 45 mg/kg for dose-expansion studies. Before each drug injection, mouse weight and tumor volume were monitored. Mice were euthanized once tumors reached more than 1.5 cm in diameter. The tumors were harvested, imaged and snap-frozen for storage at −80° C. until later use.

[1] = HCC mouse xenograft, tolerability (body, spleen, liver weight); type: in vivo
Method: as §2

[2] = QE-18-WG07 0.0061 μM, 30 min incubation
[3] = QE-18-WG07 0.0122 μM, 30 min incubation
[4] = QE-18-WG07 0.0488 μM, 30 min incubation
[5] = QE-18-WG07 0.0977 μM, 30 min incubation
[6] = QE-18-WG07 0.1953 μM, 30 min incubation
[7] = QE-18-WG07 0.7813 μM, 30 min incubation
[8] = QE-18-WG07 1.5625 μM, 30 min incubation
[9] = QE-18-WG07 3.1250 μM, 30 min incubation
[10] = QE-18-WG07 6.2500 μM, 30 min incubation
[11] = QE-18-WG07 12.5000 μM, 30 min incubation
[12] = QE-18-WG07 25.0000 μM, 30 min incubation
[13] = QE-18-WG07 50.0000 μM, 30 min incubation

Compound COc1ccccc1NC(=O)Nc1ccc([N+](=O)[O-])cc1O [QE-18-WG07] has an Emax at 1 µM (H661 cells; NCI-H661, 72 h, achieved at 1 μM, read-out: maximum growth inhibition Emax) of 90 to 100%, an IC50 (H661 cells; NCI-H661, 72 h, read-out: IC50 of cell viability) of 0.522 µM and an EC50 (H661 cells; NCI-H661, 72 h cell viability, read-out: half maximal growth inhibition EC50) of 0.42 µM. The “cleavage of PARP (apoptosis induction)” value (cleaved PARP) was “prominent cleavage of PARP”, the IC50 (SNU-398 cells; 72 h) was 0.397 µM and the Emax at 1 µM (SNU-398 cells; Homo sapiens, 72 h, achieved at 1 μM, read-out: maximum growth inhibition Emax) was 90 to 100%. The EC50 (SNU-398 cells; Homo sapiens, 72 h cell viability, read-out: half maximal growth inhibition EC50) was 0.31 µM, the IC50 (SNU-398 cells; Homo sapiens, SNU-398, 72 h, 72 h) was 0.28 µM and the “concentration at which ΔTm saturation occurs” value (SALL4 (1-300aa) protein; 13.8 μM SALL4 (1-300aa), 30 min incubation) was ≥ 12.5 µM. For the same compound, the “SALL4 (1-300) Melting Temperature Shift (° C.) Rep 1” value (SALL4 (1-300aa) protein; [2]) was −0.357 °C, the “SALL4 (1-300) Melting Temperature Shift (° C.) Rep 2” value (SALL4 (1-300aa) protein; [2]) was −0.357 °C and the “SALL4 (1-300) Melting Temperature Shift (° C.) Rep 1” value (SALL4 (1-300aa) protein; [3]) was −0.267 °C. The “SALL4 (1-300) Melting Temperature Shift (° C.) Rep 2” value (SALL4 (1-300aa) protein; [3]) was −0.267 °C, the “SALL4 (1-300) Melting Temperature Shift (° C.) Rep 1” value (SALL4 (1-300aa) protein; [4]) was −0.077 °C and the “SALL4 (1-300) Melting Temperature Shift (° C.) Rep 2” value (SALL4 (1-300aa) protein; [4]) was −0.357 °C. For the same compound, the “SALL4 (1-300) Melting Temperature Shift (° C.) Rep 1” value (SALL4 (1-300aa) protein; [5]) was −0.357 °C, the “SALL4 (1-300) Melting Temperature Shift (° C.) Rep 2” value (SALL4 (1-300aa) protein; [5]) was −0.357 °C and the “SALL4 (1-300) Melting Temperature Shift (° C.) Rep 1” value (SALL4 (1-300aa) protein; [6]) was −0.267 °C. The “SALL4 (1-300) Melting Temperature Shift (° C.) Rep 2” value (SALL4 (1-300aa) protein; [6]) was −0.267 °C, the “SALL4 (1-300) Melting Temperature Shift (° C.) Rep 1” value (SALL4 (1-300aa) protein; [7]) was −0.167 °C and the “SALL4 (1-300) Melting Temperature Shift (° C.) Rep 2” value (SALL4 (1-300aa) protein; [7]) was −0.167 °C. For the same compound, the “SALL4 (1-300) Melting Temperature Shift (° C.) Rep 1” value (SALL4 (1-300aa) protein; [8]) was 0.503 °C, the “SALL4 (1-300) Melting Temperature Shift (° C.) Rep 2” value (SALL4 (1-300aa) protein; [8]) was 0.503 °C and the “SALL4 (1-300) Melting Temperature Shift (° C.) Rep 1” value (SALL4 (1-300aa) protein; [9]) was 0.413 °C. The “SALL4 (1-300) Melting Temperature Shift (° C.) Rep 2” value (SALL4 (1-300aa) protein; [9]) was 0.793 °C, the “SALL4 (1-300) Melting Temperature Shift (° C.) Rep 1” value (SALL4 (1-300aa) protein; [10]) was 0.703 °C and the “SALL4 (1-300) Melting Temperature Shift (° C.) Rep 2” value (SALL4 (1-300aa) protein; [10]) was 0.703 °C. For the same compound, the “SALL4 (1-300) Melting Temperature Shift (° C.) Rep 1” value (SALL4 (1-300aa) protein; [11]) was 1.373 °C, the “SALL4 (1-300) Melting Temperature Shift (° C.) Rep 2” value (SALL4 (1-300aa) protein; [11]) was 1.083 °C and the “SALL4 (1-300) Melting Temperature Shift (° C.) Rep 1” value (SALL4 (1-300aa) protein; [12]) was 1.273 °C. The “SALL4 (1-300) Melting Temperature Shift (° C.) Rep 2” value (SALL4 (1-300aa) protein; [12]) was 1.273 °C, the “SALL4 (1-300) Melting Temperature Shift (° C.) Rep 1” value (SALL4 (1-300aa) protein; [13]) was 1.273 °C and the “SALL4 (1-300) Melting Temperature Shift (° C.) Rep 2” value (SALL4 (1-300aa) protein; [13]) was 0.983 °C. For the same compound, the ΔTm at 100 µM (SALL4 (1-300aa) protein; SALL4(1-300) melting temperature shift, mean ± SD (n = 2), [compound] = 100 μM, 30 min) was 1.15 ± 0.01 °C, the “Thermal Shift Assay Type” value (SALL4 (1-300aa) protein; [compound] = 100 μM, 30 min) was “Positive shifter” and the tumor shrinkage (SNU-398 xenografts; 5 mg/kg IP daily) was 40%. For the same compound, the “reduction of tumor sizes vs vehicle control” value (SNU-398 xenografts; 10 mg/kg IP daily, 10 days) was 64%, the tumor shrinkage (SNU-398 xenografts; 15 mg/kg IP daily) was 60% and the tumor shrinkage (SNU-398 xenografts; 45 mg/kg IP daily) was 70%. For the same compound, the “tolerability (animal weight preservation, normal spleen weight)” value ([1]; 10 mg/kg daily, 10 days) was “well tolerated”, the “weight loss in mice compared to vehicle” value ([1]; 10 mg/kg q.d., 10 days) was “did not induce significant weight loss” and the “tolerability (negligible weight loss, normal spleen and liver weight)” value ([1]; 45 mg/kg daily, 2 weeks) was “well tolerated”. The “weight loss in mice” value ([1]; 5, 15 and 45 mg/kg q.d., 15 days) was “did not induce significant weight loss”.
